# Measurements: ChEMBL document CHEMBL5325509, “Pyrrolidinedione-thiazolidinone hybrid molecules with potent cytotoxic effect in squamous cell carcinoma SCC-15 cells” (Bioorg Med Chem, 2023)
# Activity calls are given as the source filed them. The rule behind the calls is not given here.
# Experiments:
# [1] = Cytotoxicity against human HaCaT cells assessed reduction in cellular metabolic activity incubated for 72 hrs by MTT assay; format: toxicity, cell-based
# Leukemic tumor cell line = assay: Cytotoxicity against human Leukemic tumor cell line assessed as inhibition of cell growth measured at 72 hrs; format: functional, cell-based
# [2] = Downregulation of PPARgamma mRNA expression in human SCC-15 cells at 1 uM measured after 24 hrs by RT-PCR analysis (reference value: 79.68 %); format: functional
# HaCaT = assay: Cytotoxicity against human HaCaT cells assessed reduction in cellular metabolic activity at 0.1 to 100 uM incubated for 24 to 72 hrs by MTT assay; format: toxicity, cell-based; conditions: dose lower 0.1 µM, time lower 24 hrs, dose upper 100 µM, time upper 72 hrs
# SCC-15 [3] = assay: Cytotoxicity against human SCC-15 cells assessed as LDH release at 100 uM incubated for 24 hrs relative to control; format: functional
# SCC-15 [4] = assay: Cytotoxicity against human SCC-15 cells assessed as decrease in cellular metabolic activity at 10 uM incubated for 24 hrs by resazurin reduction assay relative to control; format: functional; set-up: scale not given: the % may be the effect or the level left
# SCC-15 [5] = assay: Cytotoxicity against human SCC-15 cells assessed as LDH release incubated for 24 hrs; format: functional, cell-based; conditions: SCC-15, 24 h
# SCC-15 [6] = assay: Cytotoxicity against human SCC-15 cells assessed as LDH release at 50 uM incubated for 48 hrs relative to control; format: functional
# [7] = Upregulation of AHR mRNA expression in PPARgamma-silenced human SCC-15 cells at 1 uM measured after 24 hrs by RT-PCR analysis; format: functional
# [8] = Upregulation of AHR expression in PPARgamma-silenced human SCC-15 cells at 1 uM incubated for 48 hrs Western blot analysis relative to control; format: functional
# SCC-15 [9] = assay: Cytotoxicity against human SCC-15 cells assessed as decrease in cellular metabolic activity at 100 uM incubated for 24 hrs by resazurin reduction assay relative to control; format: functional; set-up: scale not given: the % may be the effect or the level left
# [10] = Upregulation of Ki67 expression in human SCC-15 cells at 1 uM incubated for 48 hrs Western blot analysis relative to control; format: functional
# [11] = Cytotoxicity against mouse BALB/3T3 cells assessed reduction in cellular metabolic activity incubated for 24 to 72 hrs by MTT assay; format: toxicity, cell-based
# SCC-15 [12] = assay: Induction of intracellular ROS generation in human SCC-15 cells at 0.001 to 100 uM by DCFH-DA staining based immunofluorescence analysis; format: functional, cell-based; conditions: dose 0.001-100 µM, time 24-48 hrs, TDE = time-dependent effect
# [13] = Upregulation of AHR mRNA expression in PPARgamma knockdown human SCC-15 cells at 1 uM measured after 24 hrs by RT-PCR analysis; format: functional
# SCC-15 [14] = assay: Induction of intracellular ROS generation in human SCC-15 cells incubated for 24 to 48 hrs by DCFH-DA staining based immunofluorescence analysis; format: functional, cell-based; conditions: dose 0.001-100 µM, time 24-48 hrs
# SCC-15 [15] = assay: Cytotoxicity against human SCC-15 cells assessed as decrease in cellular metabolic activity incubated for 48 hrs by resazurin reduction assay; format: functional, cell-based; conditions: SCC-15, 48 h
# [16] = Upregulation of NRFL2 mRNA expression in PPARgamma knockdown human SCC-15 cells at 1 uM measured after 24 hrs by RT-PCR analysis; format: functional
# Lung cancer cell line = assay: Cytotoxicity against human Lung cancer cell line assessed as inhibition of cell growth measured at 72 hrs; format: functional, cell-based
# [17] = Upregulation of Caspase-3 activity in human SCC-15 cells at 100 uM measured after 24 hrs in presence of Ac-DEVD-AMC by fluorescence microplate reader analysis; format: functional
# Glioblastoma cell line = assay: Cytotoxicity against human Glioblastoma cell line assessed as inhibition of cell growth measured at 72 hrs; format: functional, cell-based
# SCC-15 [18] = assay: Induction of intracellular ROS generation in human SCC-15 cells at 0.001 to 10 uM incubated for 24 to 48 hrs by DCFH-DA staining based immunofluorescence analysis; format: functional, cell-based; conditions: dose 0.001-10 µM, time 24-48 hrs
# [19] = Downregulation of PPARgamma mRNA expression in PPARgamma-silenced human SCC-15 cells at 1 uM measured after 24 hrs by RT-PCR analysis; format: functional
# [20] = Upregulation of Ki67 expression in PPARgamma-silenced human SCC-15 cells at 1 uM incubated for 48 hrs Western blot analysis relative to siRNA control; format: functional
# [21] = Downregulation of NRFL2 mRNA expression in human SCC-15 cells at 1 uM measured after 24 hrs by RT-PCR analysis (reference value: 18.36 %); format: functional
# Colon carcinoma cell = assay: Cytotoxicity against human Colon carcinoma cell assessed as inhibition of cell growth measured at 72 hrs; format: functional, cell-based
# [22] = Upregulation of PPARgamma expression in human SCC-15 cells at 1 uM incubated for 48 hrs Western blot analysis relative to control; format: functional
# BALB/3T3 = assay: Cytotoxicity against mouse BALB/3T3 cells assessed reduction in cellular metabolic activity at 0.1 to 100 uM incubated for 24 to 72 hrs by MTT assay; format: toxicity, cell-based; conditions: balb/3t3, 100 µM, dose lower 0.1 µM, time lower 24 hrs, dose upper 100 µM, time upper 72 hrs
# SCC-15 [23] = assay: Induction of intracellular ROS generation in human SCC-15 cells at 50 to 100 uM incubated for 24 hrs by DCFH-DA staining based immunofluorescence analysis; format: functional; conditions: dose 50-100 µM
# [24] = Upregulation of PCNA expression in PPARgamma-silenced human SCC-15 cells at 1 uM incubated for 48 hrs Western blot analysis relative to siRNA control; format: functional
# [25] = Downregulation of AHR expression in PPARgamma-silenced human SCC-15 cells at 1 uM incubated for 48 hrs Western blot analysis relative to SiRNA control; format: functional
# SCC-15 [26] = assay: Cytotoxicity against human SCC-15 cells assessed as decrease in cellular metabolic activity at 50 uM incubated for 24 hrs by resazurin reduction assay relative to control; format: functional; set-up: scale not given: the % may be the effect or the level left
# SCC-15 [27] = assay: Cytotoxicity against human SCC-15 cells assessed as LDH release incubated for 48 hrs; format: functional, cell-based; conditions: SCC-15, 48 h
# SCC-15 [28] = assay: Cytotoxicity against human SCC-15 cells assessed as decrease in cellular metabolic activity at 10 uM incubated for 48 hrs by resazurin reduction assay relative to control; format: functional; set-up: scale not given: the % may be the effect or the level left
# SCC-15 [29] = assay: Cytotoxicity against human SCC-15 cells assessed as LDH release at 100 uM incubated for 48 hrs relative to control; format: functional
# [30] = Upregulation of Caspase-3 activity in human SCC-15 cells at 100 uM measured after 48 hrs in presence of Ac-DEVD-AMC by fluorescence microplate reader analysis; format: functional
# [31] = Upregulation of PPARgamma expression in PPARgamma-silenced human SCC-15 cells at 1 uM incubated for 48 hrs Western blot analysis relative to control; format: functional
# SCC-15 [32] = assay: Cytotoxicity against human SCC-15 cells assessed as decrease in cellular metabolic activity at 100 uM incubated for 48 hrs by resazurin reduction assay relative to control; format: functional; set-up: scale not given: the % may be the effect or the level left
# SCC-15 [33] = assay: Induction of intracellular ROS generation in human SCC-15 cells at 50 to 100 uM incubated for 48 hrs by DCFH-DA staining based immunofluorescence analysis; format: functional; conditions: dose 50-100 µM
# [34] = Downregulation of AHR mRNA expression in human SCC-15 cells at 1 uM measured after 24 hrs by RT-PCR analysis (reference value: 17.30 %); format: functional
# Breast carcinoma cell = assay: Cytotoxicity against human Breast carcinoma cell assessed as inhibition of cell growth measured at 72 hrs; format: functional, cell-based
# SCC-15 [35] = assay: Cytotoxicity against human SCC-15 cells assessed as decrease in cellular metabolic activity at 50 uM incubated for 48 hrs by resazurin reduction assay relative to control; format: functional; set-up: scale not given: the % may be the effect or the level left
# SCC-15 [36] = assay: Cytotoxicity against human SCC-15 cells assessed as decrease in cellular metabolic activity incubated for 24 hrs by resazurin reduction assay; format: functional, cell-based; conditions: SCC-15, 24 h
# SCC-15 [37] = assay: Cytotoxicity against human SCC-15 cells assessed as LDH release at 50 uM incubated for 24 hrs relative to control; format: functional
# [38] = Cytotoxicity against human Cervical carcinoma cell assessed as inhibition of cell growth measured at 72 hrs; format: functional, cell-based
# [39] = Downregulation of PCNA expression in PPARgamma-silenced human SCC-15 cells at 1 uM incubated for 48 hrs Western blot analysis relative to control; format: functional
# SCC-15 [40] = assay: Cytotoxicity against human SCC-15 cells assessed as LDH release at 10 uM incubated for 24 hrs relative to control; format: functional
# [41] = Cytotoxicity against human HaCaT cells assessed reduction in cellular metabolic activity incubated for 24 to 72 hrs by MTT assay; format: toxicity, cell-based
smiles,measurement,setting,value
O=C1CC(N2C(=O)/C(=C/C(Cl)=C/c3ccc([N+](=O)[O-])cc3)SC2=S)C(=O)N1c1ccc(O)cc1 (stereo not drawn),IC50 at 72 h,[1],73.6 µM
same,IC50,Leukemic tumor cell line,1 µM
same,Activity,[2],21.32%
same,Activity,HaCaT,Non-Toxic
same,Activity,SCC-15 [3],115.3%
same,Activity,SCC-15 [4],43.58%
same,EC50,SCC-15 [5],24.9 µM
same,Activity,SCC-15 [6],150.7%
same,Activity,[7],33.59%
same,Activity,[8],4.74%
same,Activity,SCC-15 [9],79.14%
same,Activity,[10],28.61%
same,IC50,[11],> 100 µM
same,Activity,SCC-15 [12],Tde
same,Activity,[13],15.99%
same,Activity,SCC-15 [14],Dose-Dependent Effect
same,IC50,SCC-15 [15],6.72 µM
same,Activity,[16],5.73%
same,IC50,Lung cancer cell line,1 µM
same,Activity,[17],74.97%
same,IC50,Glioblastoma cell line,1 µM
same,Activity,SCC-15 [18],inactive
same,Activity,[19],60.85%
same,Activity,[20],41.15%
same,Activity,[21],13.77%
same,IC50,Colon carcinoma cell,1 µM
same,Activity,[22],18.58%
same,Activity,BALB/3T3,Non-Toxic
same,Activity,SCC-15 [23],11.01%
same,Activity,[24],23.6%
same,Activity,[25],32.59%
same,Activity,SCC-15 [26],77%
same,EC50,SCC-15 [27],32.8 µM
same,Activity,SCC-15 [28],69.88%
same,Activity,SCC-15 [29],90.92%
same,Activity,[30],62.85%
same,Activity,[31],19.96%
same,Activity,SCC-15 [32],83.18%
same,Activity,SCC-15 [33],23.37%
same,Activity,[34],34.9%
same,IC50,Breast carcinoma cell,1 µM
same,Activity,SCC-15 [35],82.23%
same,IC50,SCC-15 [36],17.7 µM
same,Activity,SCC-15 [37],106.2%
same,IC50,[38],1 µM
same,Activity,[39],66.68%
same,Activity,SCC-15 [40],16.8%
same,IC50,[41],> 100 µM
